Calls of active or inactive are those of the source. The calls are words filed in the database; no cut-off is given here.
How the values were obtained:
Plasma [1] = assay: Anticoagulation activity in human plasma assessed as drug level causing 20 times doubling of APTT by measuring activity potency of oligosaccharides multiplied by the percentage of oligosaccharides in dHG-5 preincubated for 2 mins followed by APTT reagent and measured after 3 mins by coagulometric method relative to dHG-5; format: functional; settings: time 5 min
[2] = target: T1, Coagulation factor VII (Homo sapiens) (UniProt P08709); assay: Inhibition of factor 7a (unknown origin) at IC50 using pefachrome factor VIIa as substrate preincubated for 1 min followed by chromogenic substrate addition and measured for 2 mins in presence of AT-III; settings: time 3.0 min
T1 sequence (whole entry): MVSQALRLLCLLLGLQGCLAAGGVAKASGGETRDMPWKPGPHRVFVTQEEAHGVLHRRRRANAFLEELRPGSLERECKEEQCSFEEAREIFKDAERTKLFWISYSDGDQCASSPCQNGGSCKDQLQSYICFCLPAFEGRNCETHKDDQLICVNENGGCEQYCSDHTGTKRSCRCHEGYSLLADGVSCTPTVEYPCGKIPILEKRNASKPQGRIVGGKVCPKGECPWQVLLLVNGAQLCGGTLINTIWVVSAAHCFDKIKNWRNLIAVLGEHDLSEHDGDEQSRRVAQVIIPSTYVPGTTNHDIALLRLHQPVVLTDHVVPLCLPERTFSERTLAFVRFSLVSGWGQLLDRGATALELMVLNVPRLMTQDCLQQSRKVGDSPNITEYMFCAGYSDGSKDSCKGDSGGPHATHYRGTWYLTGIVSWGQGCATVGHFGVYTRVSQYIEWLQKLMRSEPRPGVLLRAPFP

Rattus norvegicus [3] = assay: Antithrombotic activity in thromboplastin and stasis-induced Sprague-Dawley rat deep venous thrombosis model assessed as reduction in venous thrombosis at 1.66 mg/kg, sc administered 1 hr prior to thromboplastin addition for 20 secs followed by establishment of stasis for 20 mins relative to dHG-5; format: functional; settings: time 80.33 min, 1.339 h
[4] = target: Prothrombin (Homo sapiens) (UniProt P00734); assay: Inhibition of factor 2a (unknown origin) at IC90 preincubated for 1 min followed by chromogenic substrate addition and measured for 2 mins in presence of AT-III; settings: time 3.0 min
[5] = target: T2, Coagulation factor IX/VIII (Homo sapiens) (UniProt P00740+P00451); assay: Inhibition of human citrated plasma iXase (factor 8a-factor 9a complex) assessed as activity potency of oligosaccharides multiplied by the percentage of oligosaccharides in dHG-5 preincubated for 2 mins followed by factor 10 addition and measured after 1 min by FXa chromogenic substrate SXa-11 based assay relative to dHG-5; format: protein-complex assay; settings: time 3.0 min
[6] = target: Coagulation factor X (Homo sapiens) (UniProt P00742); assay: Inhibition of factor 10a (unknown origin) at IC50 preincubated for 1 min followed by chromogenic substrate addition and measured for 2 mins; settings: time 3.0 min
Coagulation factor IX [7] = target: T3, Coagulation factor IX (Homo sapiens, UniProt P00740); assay: Inhibition of factor 9a (unknown origin) binding to immobilized biotinylated oHG-11 by biolayer interferometry relative to dHG-5
[8] = target: Coagulation factor X (Homo sapiens) (UniProt P00742); assay: Inhibition of factor 10a (unknown origin) at IC50 preincubated for 1 min followed by chromogenic substrate addition and measured for 2 mins in presence of AT-III; settings: time 3.0 min
[9] = target: T4, Coagulation factor XII (Homo sapiens) (UniProt P00748); assay: Inhibition of factor 12a (unknown origin) at IC50 using kallikrein chromogenic substrate preincubated for 1 min followed by chromogenic substrate addition and measured for 2 mins in presence of AT-III; settings: time 3.0 min
T4 sequence (whole entry): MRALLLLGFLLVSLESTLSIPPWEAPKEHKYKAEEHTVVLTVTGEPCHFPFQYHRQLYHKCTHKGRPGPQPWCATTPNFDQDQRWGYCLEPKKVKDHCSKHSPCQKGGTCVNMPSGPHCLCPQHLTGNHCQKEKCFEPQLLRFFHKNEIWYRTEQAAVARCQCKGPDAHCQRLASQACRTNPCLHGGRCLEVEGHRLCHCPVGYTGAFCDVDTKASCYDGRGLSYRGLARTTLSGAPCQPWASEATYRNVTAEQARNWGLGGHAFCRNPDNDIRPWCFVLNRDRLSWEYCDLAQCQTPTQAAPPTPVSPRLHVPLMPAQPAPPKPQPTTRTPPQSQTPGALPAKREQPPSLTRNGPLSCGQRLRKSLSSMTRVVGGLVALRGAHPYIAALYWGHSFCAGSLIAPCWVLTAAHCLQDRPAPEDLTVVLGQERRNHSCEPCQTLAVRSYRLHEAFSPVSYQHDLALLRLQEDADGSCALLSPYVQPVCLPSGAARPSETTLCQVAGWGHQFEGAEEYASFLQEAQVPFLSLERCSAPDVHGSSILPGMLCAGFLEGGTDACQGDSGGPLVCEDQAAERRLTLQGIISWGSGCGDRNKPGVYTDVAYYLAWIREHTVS

[10] = target: Prothrombin (Homo sapiens) (UniProt P00734); assay: Inhibition of factor 2a (unknown origin) at IC50 preincubated for 1 min followed by chromogenic substrate addition and measured for 2 mins; settings: time 3.0 min
[11] = target: Coagulation factor XI (Homo sapiens) (UniProt P03951); assay: Inhibition of factor 11a (unknown origin) at IC50 using S-2366 as substrate preincubated for 1 min followed by chromogenic substrate addition and measured for 2 mins in presence of AT-III; settings: time 3.0 min
[12] = target: T4, Coagulation factor XII (Homo sapiens); assay: Inhibition of factor 12a (unknown origin) at IC50 using kallikrein chromogenic substrate preincubated for 1 min followed by chromogenic substrate addition and measured for 2 mins; settings: time 3.0 min
[13] = target: Coagulation factor XI (Homo sapiens) (UniProt P03951); assay: Inhibition of factor 11a (unknown origin) at IC90 using S-2366 as substrate preincubated for 1 min followed by chromogenic substrate addition and measured for 2 mins in presence of AT-III; settings: time 3.0 min
[14] = target: T1, Coagulation factor VII (Homo sapiens); assay: Inhibition of factor 7a (unknown origin) at IC50 using pefachrome factor VIIa as substrate preincubated for 1 min followed by chromogenic substrate addition and measured for 2 mins; settings: time 3.0 min
Coagulation factor IX [15] = target: T3, Coagulation factor IX; assay: Inhibition of factor 9a (unknown origin) binding to immobilized biotinylated oHG-11 assessed as activity potency of oligosaccharides multiplied by the percentage of oligosaccharides in dHG-5 by biolayer interferometry relative to dHG-5
[16] = target: Prothrombin (Homo sapiens) (UniProt P00734); assay: Inhibition of factor 2a (unknown origin) at IC50 preincubated for 1 min followed by chromogenic substrate addition and measured for 2 mins in presence of AT-III; settings: time 3.0 min
[17] = target: T2, Coagulation factor IX/VIII (Homo sapiens); assay: Inhibition of human citrated plasma iXase (factor 8a-factor 9a complex) preincubated for 2 mins followed by factor 10 addition and measured after 1 min by FXa chromogenic substrate SXa-11 based assay relative to dHG-5; format: protein-complex assay; settings: time 3.0 min
[18] = target: Coagulation factor X (Homo sapiens) (UniProt P00742); assay: Inhibition of factor 10a (unknown origin) at IC90 preincubated for 1 min followed by chromogenic substrate addition and measured for 2 mins in presence of AT-III relative to control; settings: time 3.0 min
Rattus norvegicus [19] = assay: Antithrombotic activity in thromboplastin and stasis-induced Sprague-Dawley rat deep venous thrombosis model assessed as reduction in venous thrombosis by measuring activity potency of oligosaccharides multiplied by the percentage of oligosaccharides in dHG-5 at 1.66 mg/kg, sc administered 1 hr prior to thromboplastin addition for 20 secs followed by establishment of stasis for 20 mins relative …; format: functional; settings: time 80.33 min, 1.339 h
Plasma [20] = assay: Anticoagulation activity in human plasma assessed as drug level causing 20 times doubling of APTT preincubated for 2 mins followed by APTT reagent and measured after 3 mins by coagulometric method relative to dHG-5; format: functional; settings: time 5 min
[21] = target: Coagulation factor XI (Homo sapiens) (UniProt P03951); assay: Inhibition of factor 11a (unknown origin) at IC50 using S-2366 as substrate preincubated for 1 min followed by chromogenic substrate addition and measured for 2 mins; settings: time 3.0 min

Chain of Coagulation factor XI (Homo sapiens) (P03951 19-387 limits assumed): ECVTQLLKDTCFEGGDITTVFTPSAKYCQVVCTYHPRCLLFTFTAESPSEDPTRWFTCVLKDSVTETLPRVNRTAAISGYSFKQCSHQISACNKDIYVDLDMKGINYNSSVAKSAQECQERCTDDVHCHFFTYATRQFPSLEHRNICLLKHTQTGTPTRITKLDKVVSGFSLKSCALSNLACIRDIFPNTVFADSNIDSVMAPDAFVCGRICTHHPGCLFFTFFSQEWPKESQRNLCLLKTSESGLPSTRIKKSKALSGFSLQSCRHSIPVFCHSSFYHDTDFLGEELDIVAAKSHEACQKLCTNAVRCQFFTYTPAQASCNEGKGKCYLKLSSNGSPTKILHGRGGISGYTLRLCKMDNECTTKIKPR
Chain of Coagulation factor XI (Homo sapiens) (P03951 388-625 limits assumed): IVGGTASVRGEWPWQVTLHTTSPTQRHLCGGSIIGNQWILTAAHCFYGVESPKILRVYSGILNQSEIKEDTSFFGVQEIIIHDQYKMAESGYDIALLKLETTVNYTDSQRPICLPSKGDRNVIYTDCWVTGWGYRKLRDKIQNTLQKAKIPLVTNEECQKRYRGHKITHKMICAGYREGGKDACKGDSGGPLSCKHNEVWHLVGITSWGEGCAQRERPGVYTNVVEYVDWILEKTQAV
Chain of Coagulation factor X (Homo sapiens) (P00742 41-179 limits assumed): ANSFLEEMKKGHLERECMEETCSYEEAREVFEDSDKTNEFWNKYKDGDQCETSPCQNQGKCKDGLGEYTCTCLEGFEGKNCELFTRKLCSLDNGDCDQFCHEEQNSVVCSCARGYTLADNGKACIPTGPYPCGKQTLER
Chain of Coagulation factor X (Homo sapiens) (P00742 235-488 limits assumed): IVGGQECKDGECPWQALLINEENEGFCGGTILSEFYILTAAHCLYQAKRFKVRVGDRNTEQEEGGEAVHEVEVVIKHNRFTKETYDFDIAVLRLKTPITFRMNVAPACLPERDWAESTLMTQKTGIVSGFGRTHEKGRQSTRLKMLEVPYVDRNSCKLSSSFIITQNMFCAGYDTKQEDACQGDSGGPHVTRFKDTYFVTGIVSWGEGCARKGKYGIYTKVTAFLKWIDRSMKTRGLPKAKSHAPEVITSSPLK
T3 sequence (P00740 47-191 limits assumed): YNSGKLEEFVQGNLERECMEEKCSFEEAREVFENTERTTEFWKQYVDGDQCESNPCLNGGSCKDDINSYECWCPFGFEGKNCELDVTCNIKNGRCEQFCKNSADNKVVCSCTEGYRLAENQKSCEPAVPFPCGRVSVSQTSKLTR
T3 sequence (P00740 227-461 limits assumed): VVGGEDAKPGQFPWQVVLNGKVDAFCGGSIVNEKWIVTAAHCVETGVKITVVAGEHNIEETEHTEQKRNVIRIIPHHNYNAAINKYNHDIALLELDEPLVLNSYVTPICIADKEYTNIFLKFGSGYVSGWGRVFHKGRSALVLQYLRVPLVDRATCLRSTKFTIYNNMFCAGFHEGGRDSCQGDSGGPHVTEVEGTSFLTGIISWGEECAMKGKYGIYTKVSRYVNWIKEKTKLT

inhibition [2]: inactive
inhibition [4]: Active
Ratio [5]: 19.1 U
inhibition [6]: inactive
Ratio (Coagulation factor IX [7]): 235 U
inhibition [8]: inactive
inhibition [9]: inactive
inhibition [10]: inactive
inhibition [11]: inactive
inhibition [12]: inactive
inhibition [13]: Active
inhibition (active/not active) [14]: inactive
Ratio (Coagulation factor IX [15]): 11.2 U
inhibition [16]: inactive
Ratio [17]: 403 U
inhibition [18]: inactive
inhibition [21]: inactive
SMILES: CC(=O)N[C@H]1[C@H](O[C@H]2[C@H](O[C@@H]3O[C@@H](C)[C@@H](OS(=O)(=O)[O-])[C@@H](OS(=O)(=O)O)[C@@H]3O)[C@@H](O)[C@H](O[C@@H]3[C@@H](NC(C)=O)[C@H](O[C@H]4[C@H](O[C@@H]5O[C@@H](C)[C@@H](OS(=O)(=O)[O-])[C@@H](OS(=O)(=O)O)[C@@H]5O)[C@@H](O)[C@H](O[C@@H]5[C@@H](NC(C)=O)[C@H](O[C@H]6[C@H](O[C@@H]7O[C@@H](C)[C@@H](OS(=O)(=O)[O-])[C@@H](OS(=O)(=O)O)[C@@H]7O)[C@@H](O)[C@H](O[C@@H]7[C@@H](NC(C)=O)[C@H](O[C@H]8[C@H](O[C@@H]9O[C@@H](C)[C@@H](OS(=O)(=O)[O-])[C@@H](OS(=O)(=O)O)[C@@H]9O)[C@@H](O)[C@H](O[C@@H]9[C@@H](NC(C)=O)[C@H](O[C@@H]([C@H](O[C@@H]%10O[C@@H](C)[C@@H](OS(=O)(=O)[O-])[C@@H](OS(=O)(=O)O)[C@@H]%10O)[C@@H](O)CO)[C@H](O)C(=O)O)O[C@H](COS(=O)(=O)[O-])[C@@H]9OS(=O)(=O)[O-])O[C@@H]8C(=O)O)O[C@H](COS(=O)(=O)[O-])[C@@H]7OS(=O)(=O)[O-])O[C@@H]6C(=O)[O-])O[C@H](COS(=O)(=O)[O-])[C@@H]5OS(=O)(=O)[O-])O[C@@H]4C(=O)[O-])O[C@H](COS(=O)(=O)[O-])[C@@H]3OS(=O)(=O)[O-])O[C@@H]2C(=O)[O-])O[C@H](COS(=O)(=O)[O-])[C@H](OS(=O)(=O)[O-])[C@@H]1O[C@@H]1O[C@H](C(=O)[O-])[C@@H](O[C@@H]2O[C@H](COS(=O)(=O)[O-])[C@H](OS(=O)(=O)[O-])[C@H](O[C@@H]3O[C@H](C(=O)[O-])[C@@H](O[C@@H]4O[C@H](COS(=O)(=O)[O-])[C@H](OS(=O)(=O)[O-])[C@H](O[C@@H]5O[C@H](C(=O)O)[C@@H](O[C@@H]6O[C@H](COS(=O)(=O)[O-])[C@H](OS(=O)(=O)[O-])[C@H](O[C@@H]7OC(C(=O)O)=C[C@H](O[C@@H]8O[C@@H](C)[C@@H](OS(=O)(=O)[O-])[C@@H](OS(=O)(=O)O)[C@@H]8O)[C@H]7O)[C@H]6NC(C)=O)[C@H](O[C@@H]6O[C@@H](C)[C@@H](OS(=O)(=O)[O-])[C@@H](OS(=O)(=O)O)[C@@H]6O)[C@H]5O)[C@H]4NC(C)=O)[C@H](O[C@@H]4O[C@@H](C)[C@@H](OS(=O)(=O)[O-])[C@@H](OS(=O)(=O)O)[C@@H]4O)[C@H]3O)[C@H]2NC(C)=O)[C@H](O[C@@H]2O[C@@H](C)[C@@H](OS(=O)(=O)[O-])[C@@H](OS(=O)(=O)O)[C@@H]2O)[C@H]1O.[Na+].[Na+].[Na+].[Na+].[Na+].[Na+].[Na+].[Na+].[Na+].[Na+].[Na+].[Na+].[Na+].[Na+].[Na+].[Na+].[Na+].[Na+].[Na+].[Na+].[Na+].[Na+].[Na+].[Na+].[Na+].[Na+].[Na+].[Na+].[Na+].[Na+]
Ratio (Plasma [1]): 15.15 U
Ratio (Rattus norvegicus [3]): 284.73 U
Ratio (Rattus norvegicus [19]): 13.38 U
Ratio (Plasma [20]): 319.64 U

Reference: ChEMBL document CHEMBL4765450, “The components and activities analysis of a novel anticoagulant candidate dHG-5” (Eur J Med Chem, 2020)
